Measurements taken from patent US11696937B2, “Glycopeptide compounds having activity of resisting drug-resistant bacteria, and preparation method and application thereof” (priority 2018, dated 2023).
≈ marks a conversion by molar mass, not a printed value.

What was measured:
ATCC43300 (MRSA) = experiment: In vitro antibacterial activity (MIC) against MRSA; type: cell-based, Methicillin-resistant Staphylococcus aureus; settings: MRSA strain ATCC43300; method of Pharmacopoeia of the People's Republic of China (2015 edition)
Description: (§1) An antibacterial activity of the compounds in Table 1 is determined in vitro, and a minimum inhibitory concentration (MIC) is read. The determination method refers to the method of the Pharmacopoeia of the People's Republic of China (2015 edition). The MRSA detection strain is purchased from ATCC, and the VRE detection strain is from the clinically isolated drug-resistant strain 07-W3-45 from Shanghai Huashan Hospital. Known antibiotic oritavancin (phosphate) is used for a reference drug.

[1] = test system: Clinical isolates 07-W3-45 (VRE); experiment: In vitro antibacterial activity (MIC) against VRE; type: cell-based, Vancomycin-resistant Enterococcus; settings: clinically isolated drug-resistant strain 07-W3-45 from Shanghai Huashan Hospital
Description: as §1

wild AB zebrafish = experiment: Zebrafish toxicity test; type: in vivo; settings: intravenous injection, 72 hours of treatment, samples in phosphate form
Description: A zebrafish toxicity test of the compounds in Table 1 is also tested. Randomly select wild AB zebrafish in a six-well plate, and inject each test sample at a dose of 50, 100, 150, 200, and 250 ng/tail intravenously. At the same time, a normal control group and a solvent control group (aqueous phosphoric acid) are set; During this experiment, the death of zebrafish is observed and recorded every day and the dead fish are removed. After 72 hours of treatment, the death of zebrafish is counted. Calculate the LD50 of each test product to zebrafish.
All samples are tested for zebrafish toxicity in phosphate form.

Row | SMILES | MIC ATCC43300 (MRSA) (ATCC43300 (MRSA)) | MIC Clinical isolates 07-W3-45 (VRE) [1] | Zebrafish LD50 (wild AB zebrafish)
1 | CNC(CC(C)C)C(=O)NC1C(=O)NC(CC(N)=O)C(=O)NC2C(=O)NC3C(=O)NC(C(=O)NC(C(=O)O)c4cc(O)cc(O)c4-c4cc3ccc4O)C(OC3CC(C)(N)C(O)C(C)O3)c3ccc(c(Cl)c3)Oc3cc2cc(c3OC2OC(CO)C(O)C(O)C2OC2CC(C)(NCc3ccc(OCc4ccccc4)cc3)C(O)C(C)O2)Oc2ccc(cc2Cl)C1O (stereo not drawn) [Compound 1] | 0.5 µg/mL (≈ 0.28 µM) | 2 µg/mL (≈ 1.12 µM) | 139 ng/tail
2 | CNC(CC(C)C)C(=O)NC1C(=O)NC(CC(N)=O)C(=O)NC2C(=O)NC3C(=O)NC(C(=O)NC(C(=O)O)c4cc(O)cc(O)c4-c4cc3ccc4O)C(OC3CC(C)(N)C(O)C(C)O3)c3ccc(c(Cl)c3)Oc3cc2cc(c3OC2OC(CO)C(O)C(O)C2OC2CC(C)(NCc3ccc(OCCc4ccccc4)cc3)C(O)C(C)O2)Oc2ccc(cc2Cl)C1O (stereo not drawn) [Compound 2] | 0.5 µg/mL (≈ 0.277 µM) | 2 µg/mL (≈ 1.11 µM) | 163 ng/tail
3 | CNC(CC(C)C)C(=O)NC1C(=O)NC(CC(N)=O)C(=O)NC2C(=O)NC3C(=O)NC(C(=O)NC(C(=O)O)c4cc(O)cc(O)c4-c4cc3ccc4O)C(OC3CC(C)(N)C(O)C(C)O3)c3ccc(c(Cl)c3)Oc3cc2cc(c3OC2OC(CO)C(O)C(O)C2OC2CC(C)(NCc3ccc(OCCCc4ccccc4)cc3)C(O)C(C)O2)Oc2ccc(cc2Cl)C1O (stereo not drawn) [Compound 3] | 0.25 µg/mL (≈ 0.138 µM) | 1 µg/mL (≈ 0.55 µM) | 123 ng/tail
4 | CNC(CC(C)C)C(=O)NC1C(=O)NC(CC(N)=O)C(=O)NC2C(=O)NC3C(=O)NC(C(=O)NC(C(=O)O)c4cc(O)cc(O)c4-c4cc3ccc4O)C(OC3CC(C)(N)C(O)C(C)O3)c3ccc(c(Cl)c3)Oc3cc2cc(c3OC2OC(CO)C(O)C(O)C2OC2CC(C)(NCc3ccc(OCc4ccc(C)cc4)cc3)C(O)C(C)O2)Oc2ccc(cc2Cl)C1O (stereo not drawn) [Compound 4] | 0.5 µg/mL (≈ 0.277 µM) | 2 µg/mL (≈ 1.11 µM) | 101 ng/tail
5 | CNC(CC(C)C)C(=O)NC1C(=O)NC(CC(N)=O)C(=O)NC2C(=O)NC3C(=O)NC(C(=O)NC(C(=O)O)c4cc(O)cc(O)c4-c4cc3ccc4O)C(OC3CC(C)(N)C(O)C(C)O3)c3ccc(c(Cl)c3)Oc3cc2cc(c3OC2OC(CO)C(O)C(O)C2OC2CC(C)(NCc3ccc(OCc4ccc(Cl)cc4)cc3)C(O)C(C)O2)Oc2ccc(cc2Cl)C1O (stereo not drawn) [Compound 5] | 0.5 µg/mL (≈ 0.274 µM) | 2 µg/mL (≈ 1.1 µM) | 180 ng/tail
6 | CNC(CC(C)C)C(=O)NC1C(=O)NC(CC(N)=O)C(=O)NC2C(=O)NC3C(=O)NC(C(=O)NC(C(=O)O)c4cc(O)cc(O)c4-c4cc3ccc4O)C(OC3CC(C)(N)C(O)C(C)O3)c3ccc(c(Cl)c3)Oc3cc2cc(c3OC2OC(CO)C(O)C(O)C2OC2CC(C)(NCc3ccc(OCCc4ccc(C)cc4)cc3)C(O)C(C)O2)Oc2ccc(cc2Cl)C1O (stereo not drawn) [Compound 6] | 0.25 µg/mL (≈ 0.138 µM) | 8 µg/mL (≈ 4.4 µM) | 121 ng/tail
7 | CNC(CC(C)C)C(=O)NC1C(=O)NC(CC(N)=O)C(=O)NC2C(=O)NC3C(=O)NC(C(=O)NC(C(=O)O)c4cc(O)cc(O)c4-c4cc3ccc4O)C(OC3CC(C)(N)C(O)C(C)O3)c3ccc(c(Cl)c3)Oc3cc2cc(c3OC2OC(CO)C(O)C(O)C2OC2CC(C)(NCc3ccc(OCCc4ccc(F)cc4)cc3)C(O)C(C)O2)Oc2ccc(cc2Cl)C1O (stereo not drawn) [Compound 7] | 0.5 µg/mL (≈ 0.275 µM) | 1 µg/mL (≈ 0.549 µM) | 97 ng/tail
8 | CNC(CC(C)C)C(=O)NC1C(=O)NC(CC(N)=O)C(=O)NC2C(=O)NC3C(=O)NC(C(=O)NC(C(=O)O)c4cc(O)cc(O)c4-c4cc3ccc4O)C(OC3CC(C)(N)C(O)C(C)O3)c3ccc(c(Cl)c3)Oc3cc2cc(c3OC2OC(CO)C(O)C(O)C2OC2CC(C)(NCc3ccc(OCCc4ccc(Cl)cc4)cc3)C(O)C(C)O2)Oc2ccc(cc2Cl)C1O (stereo not drawn) [Compound 8] | 0.5 µg/mL (≈ 0.272 µM) | 1 µg/mL (≈ 0.544 µM) | 150 ng/tail
9 | CNC(CC(C)C)C(=O)NC1C(=O)NC(CC(N)=O)C(=O)NC2C(=O)NC3C(=O)NC(C(=O)NC(C(=O)O)c4cc(O)cc(O)c4-c4cc3ccc4O)C(OC3CC(C)(N)C(O)C(C)O3)c3ccc(c(Cl)c3)Oc3cc2cc(c3OC2OC(CO)C(O)C(O)C2OC2CC(C)(NCc3ccc(OCCc4ccc(Br)cc4)cc3)C(O)C(C)O2)Oc2ccc(cc2Cl)C1O (stereo not drawn) [Compound 9] | 0.25 µg/mL (≈ 0.133 µM) | 1 µg/mL (≈ 0.531 µM) | 129 ng/tail
